Values quoted from earlier work in patent US12208127B2, “Preparation and use of cannabis nano-formulation” (Apurano Pharmaceuticals GmbH, priority 2020, dated 2025).
Where two headings read alike, the source gives them in different places.

Key:
[1] = i.v. single dose 1 mg
[2] = some pharmacological animal experiments
[3] = higher formation after administration

SMILES: CCCCCc1cc(O)c2c(c1)OC(C)(C)[C@@H]1CCC(CO)=C[C@@H]21 [Example 11-OH-THC, 11-OH-THC]
- time to tachycardia and psychological high [1]: 3-5 minutes
- psychotropic side effects relative to THC [2]: three to seven

SMILES: CCCCCc1cc(O)c2c(c1)OC(C)(C)[C@@H]1CCC(C)=C[C@@H]21 [THC, tetrahydrocannabinol]
- average plasma clearance rate (naïve THC users): approximately 36 L/h
- average plasma clearance rate (regular users): ~60 L/h

SMILES: CCCCCc1cc(O)c2c(c1)OC(C)(C)[C@@H]1CCC(C)=C[C@@H]21 [dronabinol as capsule, dronabinol]
- formation of 11-OH-THC compared to THC [3]: 3 fold
